Results from patent US8476221B2, “Methods and compositions for the treatment of metabolic disorders” (Halimed Pharmaceuticals, Inc., priority 2011, dated 2013).
Non-standard residues stand in square brackets, D forms with d. Residues, ends and D or L forms follow the SMILES beside them. *: point of attachment. Tle = CC(C)(C)[C@H](N)C(=O)O; X1 = CCNCCCC(=O)*

Assays:
[1] = Toxicity study in monkeys, serum chemistry (cholesterol, triglycerides, liver enzymes); format: in vivo
Experimental: A study was conducted to evaluate toxicity in monkeys with HPI-363 at doses of 0.05 to 5 mg/kg. The compound was administered as a slow IV push over 20 to 30 seconds. Six animals (3 males and 3 females) approximately 2 years old and weighing 2.1-2.5 kilograms were dosed once daily for 14 days. Blood chemistry was collected on Days 1-15. […] A reduction of 27%-40% in levels of cholesterol and triglycerides respectively from pre-dose was observed over 15 days. The lipid-lowering effect occurred within a 12 hr-period.

[2] = Body weight and food intake in Sprague-Dawley and obese Zucker (fa/fa) rats; format: in vivo; conditions: for Avg. Wt. Change (g) Days 1-10 / Food Consumption. (g) Days 1-10: 1 mg/kg IV daily Days 1-10; for Avg. Wt. Change (g) Days 11-20 / Food Consumption. (g) Days 11-20: saline Days 11-20 after 1 mg/kg IV daily Days 1-10
Experimental: Male Sprague-Dawley (SD, Harlan Laboratories) rats (210-220 g at initiation of experiments) and genetically obese Zucker (fa/fa) (ZF, Harlan Laboratories) rats (210-220 g at initiation of experiments) were housed individually under a 12 h:12 h light:dark schedule (lights on at 7:00 AM). All compound administration, animal and food weighing were performed between noon and 1 PM (during the light phase of the animals' circadian illumination schedule). Each rat was provided standard rat chow and water ad libitum throughout the experiments.
Each animal received either 1 mg/kg HPI-363 dissolved in saline IV (Treated) or saline (Vehicle or Untreated) for ten consecutive days followed by daily injections of saline for ten additional days. At the start of the experiment, each animal was weighed and single-housed with rat chow and water, with subsequent weighing occurring at 24 hr increments for 20 days. For food intake, 100 g of rat chow was placed in each animal's hopper and leftover chow in the hopper was collected and weighed every 24 hr for 20 days at the time of animal weighing. Chow was then replenished to 100 g each day. As a monitor of the general health of the animals, rats were observed twice daily.

NT2 receptor = NT2 receptor (Homo sapiens, UniProt O95665); conditions: receptor binding studies; cited from earlier work
Sequence of NT2 receptor (O95665 whole entry): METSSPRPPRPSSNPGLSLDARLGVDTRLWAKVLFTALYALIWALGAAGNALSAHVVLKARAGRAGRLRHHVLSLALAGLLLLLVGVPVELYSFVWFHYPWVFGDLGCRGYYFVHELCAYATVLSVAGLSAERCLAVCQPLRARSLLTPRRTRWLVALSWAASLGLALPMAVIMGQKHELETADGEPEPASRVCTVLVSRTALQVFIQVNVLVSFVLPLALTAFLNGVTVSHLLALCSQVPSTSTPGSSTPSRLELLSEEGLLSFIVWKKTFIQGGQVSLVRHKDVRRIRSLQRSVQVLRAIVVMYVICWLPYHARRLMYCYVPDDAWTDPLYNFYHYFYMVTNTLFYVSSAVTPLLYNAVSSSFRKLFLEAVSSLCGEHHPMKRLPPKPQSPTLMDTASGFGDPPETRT

NT1 receptor = NT1 receptor (Homo sapiens, UniProt P30989); conditions: receptor binding studies; cited from earlier work
Sequence of NT1 receptor (P30989 whole entry): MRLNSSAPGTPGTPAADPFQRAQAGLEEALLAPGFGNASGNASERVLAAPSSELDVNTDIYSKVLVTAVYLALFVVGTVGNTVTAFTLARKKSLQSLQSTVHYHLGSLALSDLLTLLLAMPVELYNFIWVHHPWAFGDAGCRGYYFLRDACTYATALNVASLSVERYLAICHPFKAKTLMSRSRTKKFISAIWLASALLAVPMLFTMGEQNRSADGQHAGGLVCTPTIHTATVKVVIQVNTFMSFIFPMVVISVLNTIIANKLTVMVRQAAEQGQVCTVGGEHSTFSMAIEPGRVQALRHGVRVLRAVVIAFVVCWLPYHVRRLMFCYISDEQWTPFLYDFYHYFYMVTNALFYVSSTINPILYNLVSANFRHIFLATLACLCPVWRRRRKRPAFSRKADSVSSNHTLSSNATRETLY

Molecule | Time in which the lipid-lowering effect occurred ([1]; 0.05 to 5 mg/kg IV) [h] | Effect on cholesterol and triglycerides (serum chemistry) ([1]; 0.05 to 5 mg/kg IV once daily for 14 days) | Liver enzymes ([1]; 0.05 to 5 mg/kg IV once daily for 14 days, normalized within the 15 days of the study) | Reduction in levels of cholesterol from pre-dose ([1]; 0.05 to 5 mg/kg slow IV push once daily for 14 days, over 15 days) [%] | General health, observed twice daily ([2]; SD and ZF rats, 20 days) | Avg. Wt. Change (g) Days 1-10 ([2]; Sprague-Dawley (SD) rats) [g] | Food Consumption. (g) Days 1-10 ([2]; Sprague-Dawley (SD) rats) [g] | Avg. Wt. Change (g) Days 11-20 ([2]; Sprague-Dawley (SD) rats) [g] | Food Consumption. (g) Days 11-20 ([2]; Sprague-Dawley (SD) rats) [g] | Avg. Wt. Change (g) Days 1-10 ([2]; Zucker fa/fa (ZF) rats) [g] | Food Consumption. (g) Days 1-10 ([2]; Zucker fa/fa (ZF) rats) [g] | Avg. Wt. Change (g) Days 11-20 ([2]; Zucker fa/fa (ZF) rats) [g] | Food Consumption. (g) Days 11-20 ([2]; Zucker fa/fa (ZF) rats) [g] | Food intake ([2]; both SD and ZF rats, 1 mg/kg IV Days 1-10) | Weight gain ([2]; both SD and ZF rats, 1 mg/kg IV Days 1-10, maintained after cessation (Days 11-20)) | Affinity for the NT2 receptor (NT2 receptor) | Affinity for the NT1 receptor (NT1 receptor)
CCNCCCC(=O)N[C@@H](CCCNC(=N)N)C(=O)N1CCC[C@H]1C(=O)N[C@@H](Cc1c[nH]c2ccccc12)C(=O)N[C@H](C(=O)N[C@@H](CC(C)C)C(=O)O)C(C)(C)C [HPI-363] (X1-RPW[Tle]L-OH) | ≤ 12 | dose dependent effect | transient rise | 27 | No deviations from normal affect | 17.4 | 148.5 | 40.0 | 222.0 | 54.6 | 252.7 | 88.5 | 402.0 | decreased food intake | inhibition of weight gain |  | 
Lys-(psiCH2NH)-Lys-Pro-Trp-Ter-Leu-Leu-OEt [PD149163] |  |  |  |  |  |  |  |  |  |  |  |  |  |  |  | no detectable affinity | has affinity
